Results on two molecules are retold here after publication PMC9870890 (Nature Communications, 2023).

Substitutions are numbered along the chain they refer to. Where “and” joins values, the source holds several entries; their conditions need not be identical. Equal entries are not always repeated. Where two headings read alike, the source gives them in different places.

The target in one assay is T1, M2RFL△9M_K383M (Homo sapiens, UniProt P08172, K383M/M139L/M142L/M143L/M1T/M248L/M296L/M368L/M456T/M45L).
T1 construct: we used the full-length M2R (M2RFL) with mutations at the three native methionines in ICL3; FLAG; His; made in house; host or cells: Sf9 membranes
T1 sequence (P08172 1-466 M1T/M45L/M139L/M142L/M143L/M248L/M296L/M368L/K383M/M456T): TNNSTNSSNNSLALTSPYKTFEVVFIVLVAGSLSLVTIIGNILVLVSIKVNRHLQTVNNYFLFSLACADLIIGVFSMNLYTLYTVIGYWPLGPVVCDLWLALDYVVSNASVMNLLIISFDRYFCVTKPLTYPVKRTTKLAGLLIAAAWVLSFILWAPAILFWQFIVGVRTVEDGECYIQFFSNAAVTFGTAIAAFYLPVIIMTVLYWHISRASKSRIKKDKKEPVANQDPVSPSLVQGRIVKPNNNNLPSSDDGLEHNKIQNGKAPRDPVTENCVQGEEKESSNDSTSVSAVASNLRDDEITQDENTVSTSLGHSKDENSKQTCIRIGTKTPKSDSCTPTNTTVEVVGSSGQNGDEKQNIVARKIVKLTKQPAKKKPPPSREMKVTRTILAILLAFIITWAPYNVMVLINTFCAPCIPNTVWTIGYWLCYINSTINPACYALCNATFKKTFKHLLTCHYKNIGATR
Nature of the assay: [3H]-NMS competition binding (ACh competition, GoA titration), engineered construct. More on the design: unit not given here. The protocol: Purified M2R receptor was reconstituted into high-density lipoprotein (HDL) particles constituting apolipoprotein A1(APOA1) and mixture of POPG: POPC lipids with 3:2 (mol:mol)ratio as previously described. […] Membranes or HDL particles were separated from excess [^3H]-NMS by Whatman GF/B filters using a Brandel 48-well harvester. The bound radioligand were read on a liquid scintillation counter (MicroBeta Jet, PerkinElmer). Data were analyzed by GraphPad Prism 9.2.0. […]
Data are given as mean
± SEM from 3 independent experiments.
M2RFL△9M_K383M and M2RFL_WT.
SEM from 3 independent experiments. […]

In the next assay the target is T2, M2R (Homo sapiens, UniProt P08172, M139L/M142L/M1T/M248L/M296L/M368L/M456T/M45L).
T2 construct: We used a full-length construct M2RFL△8 M for complexing with miniGαo and β-arrestin-1; FLAG (N); 8xHis (C); made in house; host or cells: Sf9 insect cells
T2 sequence (P08172 1-466 M1T/M45L/M139L/M142L/M248L/M296L/M368L/M456T): T1 sequence (P08172 1-466 M1T/M45L/M139L/M142L/M143L/M248L/M296L/M368L/K383M/M456T) with L143M, M383K
In kind it is biochemical. The settings on record: for Phosphorylation intensity: 100 μM Ixo or 1 mM carbachol. The protocol: We used a full-length construct M2RFL△8 M for complexing with miniGαo and β-arrestin-1. The receptor was purified as described above for cryo-EM sample. Excess GRK2 was mixed with the M2R in a buffer composed of 20 mM HEPES pH 7.5, 100 mM NaCl, 0.01% MNG, 0.003% CHS, 500 μM ATP in the presence and absence of 100 μM Ixo or 1 mM carbachol to initiate the phosphorylation at room temperature. The extent of phosphorylation at various time points (from 0 to 120 min) was evaluated by Pro-Q and Coomassie blue staining. The final phosphorylated receptor (Ixo-bound) was further evaluated by ion-exchange chromatography. The complex formation test was performed as follows: unphosphorylated Ixo-bound M2RFL△8 M or phosphorylated M2RFL△8 M was mixed with miniGαo or β-arrestin-1, respectively and incubated on ice for 30 min. The receptor alone or mixed complex sample were then analyzed by SEC against 20 mM HEPES pH 7.5, 100 mM NaCl, 0.01% MNG, 0.003% CHS in the presence of 10 μM Ixo.

In the case of `CC(=O)OCC[N+](C)(C)C` [ACh, acetylcholine], the “ACh competition curve data, Supplementary Fig. 4c” value at M2RFL△9M_K383M (log[M] (ACh) -3) is 3.636 and 3.347 and 4.163; on M2RFL△9M_K383M (log[M] (ACh) -4), 19.7375 and 21.0617 and 22.4385; at M2RFL△9M_K383M (log[M] (ACh) -5), 66.4796 and 63.8048 and 73.8724; on M2RFL△9M_K383M (log[M] (ACh) -6), 76.3279 and 99.6814 and 101.207; at M2RFL△9M_K383M (log[M] (ACh) -7) it was 102.154 and 99.3043 and 98.5413; at M2RFL△9M_K383M (log[M] (ACh) -8) it was 82.4578 and 100.655 and 103.084.

As for `C[N+](C)(C)CC#CCOC1=NOCC1` [Ixo, iperoxo], the Phosphorylation intensity on M2R (Time 5 min) amounted to 4552.74; on M2R (Time 10 min), 10530.1; on M2R (Time 15 min), 15003.3; on M2R (Time 30 min), 17454.3; on M2R (Time 60 min) it was 18635.2; on M2R (Time 120 min), 18093.2. Besides, the “induction of GRK2-mediated phosphorylation of M2R” value at M2R (compared with carbachol) is on record as “more efficient than carbachol”.
